The results in this text go back to patent publication US20160002643A1, “Compositions And Methods To Enhance Protein Expression” (priority 2014, published 2016).

“Also recorded” adds a separate entry of the source.

Data set [1] relates to induction of co-transfected genes by pLKO.1c. Description: Drug inhibition experiments on pLKO.1c induction of co-transfected genes. The data set is classed as cell-based. Particulars: p38 inhibitor 10 μM 24 hr; Mnk1 inhibitor 2 nM 40 hr. As for the experimental part:
The Mnk1 inhibitor (Calbiochem) was added at 2 nM for 40 hr, and the p38 inhibitor (SB203580) was added at 10 μM for 24 hr prior to harvesting transfections.

Data set [2] concerns EGFP, ER-mCherry or mCherry expression in 293 cells. The data set is described as follows: FACS / fluorescence analysis of co-transfected EGFP and mCherry expression. The data set is classed as cell-based, human. To be noted: 2.5 ng EGFP expression plasmid. As for the experimental part: The average mean fluorescence and range of duplicate transfections of 5 μg of pLKO.1c or pLKΔHP plasmids into 293 cells was determined in the presence or absence of the indicated amount of pEGFP vector relative to the pcDNA control. […]
Calcium phosphate transfection of 293 cells was performed in triplicate with 5 μg of the pTRE plasmids and 1 μg of the transactivator as indicated. All cells were incubated with 300 ng/ml DOX at 7 hr post-transfection prior to FACS analysis at 48 hr. The mean and standard deviations of triplicates are reported relative to pTRE3G-BI-mCherry in the absence of transactivator. All values (lanes 2, 3, and 4) were highly statistically significant (p<0.0001) relative to values from lane 1 as was lane 3 relative to 4.
Transfections were performed as in panel B except that samples without the pTRE plasmids were included (pcDNA3). All transfections contained 2.5 ng of the EGFP expression plasmid. Without the transactivator, pTRE-Psi-sh elevated GFP expression ˜10-fold compared to pcDNA3 (p<0.0001; lanes 5 and 1) and ˜6-fold compared to pTRE-3G-BI-mCherry (p<0.0001; lanes 5 and 3). […]

Turning to `C[S+]([O-])c1ccc(-c2nc(-c3ccncc3)c(-c3ccc(F)cc3)[nH]2)cc1` (stereo not drawn) [SB203580], the “effect of inhibitor on induction of co-transfected genes by pLKO.1c” value in data set [1] was “no effect”.
As to “pMT2: adenoviral gene containing plasmid on a pBR322 backbone expressing Ad VA-RNA I, SEQ ID NO:07”, in data set [2], the “super-induction of co-transfected GFP/EGFP (in words)” value is recorded as “showed super-induction of GFP; also recorded: comparable to super-induction of GFP by pLKO.1e”.
As for `Nc1ncnc2n[nH]c(Nc3ccc(F)cc3)c12` [CGP57380], the “effect of inhibitor on induction of co-transfected genes by pLKO.1c” value in data set [1] is “no observable effect”.
